# Source: ChEMBL document CHEMBL4382198, “Discovery of Risdiplam, a Selective Survival of Motor Neuron-2 ( SMN2) Gene Splicing Modifier for the Treatment of Spinal Muscular Atrophy (SMA)” (J Med Chem, 2018)
# What was measured:
# [1] = molecular target: Survival motor neuron protein (Homo sapiens) (UniProt Q16637); experiment: Activation of SMN protein in human SMA-derived fibroblasts after 48 hrs by HTRF assay
# Homo sapiens [2] = species: Homo sapiens; experiment: Activation of human full length SMN2 mRNA expressed in human SMA-derived fibroblasts by RT-qPCR analysis
# [3] = Effect on FOXM1b/c mRNA splicing in human induced pluripotent stem cells by RT-qPCR analysis; assay type: ADME
# [4] = Effect on FOXM1b/c mRNA splicing in cynomolgus monkey induced pluripotent stem cells by RT-qPCR analysis; assay type: ADME, Macaca fascicularis
# in vivo = details: rat
# [5] = Efflux ratio of permeability in mouse 3T3 cells; assay type: ADME, cell-based, NIH3T3
# [6] = Efflux ratio of permeability in human SMA-derived fibroblasts; assay type: ADME, cell-based, Fibroblast; details: not told
# [7] = Drug metabolism in po dosed cynomolgus monkey plasma assessed as dealkylated 2-(4-ethyl-6-methylpyrazolo[1,5-a]pyrazin-2-yl)-9-methyl-7-(piperidin-4-yl)-4H-pyrido[1,2-a]pyrimidin-4-one metabolite formation; assay type: ADME, organism-based, Macaca fascicularis; details: in vivo
# [8] = Drug metabolism in po dosed rat plasma assessed as dealkylated 2-(4-ethyl-6-methylpyrazolo[1,5-a]pyrazin-2-yl)-9-methyl-7-(piperidin-4-yl)-4H-pyrido[1,2-a]pyrimidin-4-one metabolite formation; assay type: ADME, organism-based; details: in vivo
# [9] = Drug metabolism in po dosed mouse plasma assessed as dealkylated 2-(4-ethyl-6-methylpyrazolo[1,5-a]pyrazin-2-yl)-9-methyl-7-(piperidin-4-yl)-4H-pyrido[1,2-a]pyrimidin-4-one metabolite formation; assay type: ADME, organism-based; details: in vivo
# [10] = Effect on human FOXM1b/c mRNA splicing expressed in human SMA-derived fibroblasts by RT-qPCR analysis; assay type: ADME
# [11] = Oral bioavailability in rat at 5 mg/kg administered as single dose; assay type: ADME, organism-based; details: in vivo
# [12] = Drug metabolism in human plasma assessed as dealkylated 2-(4-ethyl-6-methylpyrazolo[1,5-a]pyrazin-2-yl)-9-methyl-7-(piperidin-4-yl)-4H-pyrido[1,2-a]pyrimidin-4-one metabolite formation; assay type: ADME, cell-free
# [13] = Drug metabolism in cynomolgus monkey plasma assessed as dealkylated 2-(4-ethyl-6-methylpyrazolo[1,5-a]pyrazin-2-yl)-9-methyl-7-(piperidin-4-yl)-4H-pyrido[1,2-a]pyrimidin-4-one metabolite formation; assay type: ADME, cell-free, Macaca fascicularis
# [14] = Chronic toxicity in retina of po dosed cynomolgus monkey assessed as effect on photo-receptor layers after 39 weeks by histological analysis; assay type: organism-based, Macaca fascicularis; details: in vivo, 6552 h
# [15] = Tmax in human; assay type: ADME
# [16] = Stabilization of human STRN3 mRNA splicing expressed in human SMA-derived fibroblasts at 131 to 655 nM by RT-qPCR analysis; assay type: ADME; details: 0.655 µM
# [17] = Oral bioavailability in cynomolgus monkey at 1.3 mg/kg administered as single dose; assay type: ADME, organism-based, Macaca fascicularis; details: in vivo
# hERG (KCNH2) = hERG (KCNH2) (Homo sapiens, UniProt Q12809); experiment: (§1) Inhibition of human ERG at 37 degC; details: human
# Chain of hERG (KCNH2) (Q12809 whole entry): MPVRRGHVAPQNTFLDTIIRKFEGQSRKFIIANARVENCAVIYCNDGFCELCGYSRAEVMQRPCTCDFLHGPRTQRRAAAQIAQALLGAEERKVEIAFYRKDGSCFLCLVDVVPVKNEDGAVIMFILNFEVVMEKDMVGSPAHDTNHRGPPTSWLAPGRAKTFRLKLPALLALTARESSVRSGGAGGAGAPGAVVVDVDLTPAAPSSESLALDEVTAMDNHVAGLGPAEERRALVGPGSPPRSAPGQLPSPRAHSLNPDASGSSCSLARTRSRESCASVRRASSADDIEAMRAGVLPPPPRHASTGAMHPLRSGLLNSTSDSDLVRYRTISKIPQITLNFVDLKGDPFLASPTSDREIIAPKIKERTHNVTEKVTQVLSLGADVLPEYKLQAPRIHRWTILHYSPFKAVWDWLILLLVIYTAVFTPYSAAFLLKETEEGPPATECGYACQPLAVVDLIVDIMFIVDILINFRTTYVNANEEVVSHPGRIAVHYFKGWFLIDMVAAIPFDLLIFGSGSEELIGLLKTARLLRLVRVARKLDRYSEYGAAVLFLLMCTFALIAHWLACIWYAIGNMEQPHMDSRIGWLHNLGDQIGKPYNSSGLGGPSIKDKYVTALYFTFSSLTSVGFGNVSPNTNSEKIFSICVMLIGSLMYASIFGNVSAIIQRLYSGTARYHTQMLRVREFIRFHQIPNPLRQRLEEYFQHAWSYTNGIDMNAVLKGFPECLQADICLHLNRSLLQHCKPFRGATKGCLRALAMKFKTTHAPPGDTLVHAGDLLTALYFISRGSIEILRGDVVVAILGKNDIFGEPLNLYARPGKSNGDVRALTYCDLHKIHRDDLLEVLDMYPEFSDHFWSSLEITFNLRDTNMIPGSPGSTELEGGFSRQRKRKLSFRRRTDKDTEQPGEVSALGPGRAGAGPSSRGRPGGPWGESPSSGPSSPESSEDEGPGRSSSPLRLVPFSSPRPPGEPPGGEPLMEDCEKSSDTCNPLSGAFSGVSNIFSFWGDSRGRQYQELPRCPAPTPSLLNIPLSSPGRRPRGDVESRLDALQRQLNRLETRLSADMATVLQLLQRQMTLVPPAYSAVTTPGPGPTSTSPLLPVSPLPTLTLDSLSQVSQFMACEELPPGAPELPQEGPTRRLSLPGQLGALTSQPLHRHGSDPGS
# [18] = molecular target: Voltage-gated inwardly rectifying potassium channel KCNH2 (Homo sapiens, UniProt Q12809); experiment: as §1
# Chain of Voltage-gated inwardly rectifying potassium channel KCNH2 (Q12809 whole entry): as above
# [19] = Drug metabolism in dog plasma assessed as dealkylated 2-(4-ethyl-6-methylpyrazolo[1,5-a]pyrazin-2-yl)-9-methyl-7-(piperidin-4-yl)-4H-pyrido[1,2-a]pyrimidin-4-one metabolite formation; assay type: ADME, cell-free, Canis lupus familiaris
# Mus musculus [20] = experiment: In-vivo stabilization of SMN2 mRNA in SMA neonatal delta7 mouse model assessed as increase in free SMN protein levels by measuring free AUC (0 to 42 hrs) at 3 mg/kg, ip dosed once daily starting from postnatal day 3 to postnatal day 9; assay type: functional
# [21] = Drug metabolism in rabbit plasma assessed as dealkylated 2-(4-ethyl-6-methylpyrazolo[1,5-a]pyrazin-2-yl)-9-methyl-7-(piperidin-4-yl)-4H-pyrido[1,2-a]pyrimidin-4-one metabolite formation; assay type: ADME, cell-free, Oryctolagus cuniculus
# [22] = Terminal half life in rat; assay type: ADME; details: in vivo, read-out: beta t1/2 (converted)
# [23] = Half life in rat at 5 mg/kg, po administered as single dose; assay type: ADME, organism-based; details: in vivo
# [24] = Stabilization of human MADD mRNA splicing expressed in human SMA-derived fibroblasts at 131 to 655 nM by RT-qPCR analysis; assay type: ADME; details: 0.655 µM
# [25] = Clearance in rat at 2 mg/kg, iv administered as single dose; assay type: ADME, organism-based; details: in vivo
# [26] = Chronic toxicity in retina of po dosed cynomolgus monkey assessed as multifocal peripheral retina degeneration after 39 weeks by OCT analysis; assay type: organism-based, Macaca fascicularis; details: in vivo, 6552 h
# [27] = Cardiotoxicity in cynomolgus monkey assessed as prolongation of QTc interval time; assay type: toxicity, Macaca fascicularis
# [28] = Terminal half life in cynomolgus monkey; assay type: ADME, Macaca fascicularis; details: in vivo, read-out: beta t1/2 (converted)
# [29] = Chronic toxicity in retina of po dosed cynomolgus monkey assessed as formation of microcystic spaces in the inner retinal layers after 39 weeks by OCT analysis; assay type: organism-based, Macaca fascicularis; details: in vivo, 6552 h
# Homo sapiens [30] = species: Homo sapiens; experiment: Modulation of human SMN2 mRNAsplicing expressed in HEK293H cells by qRT-PCR analysis; assay type: cell-based
# [31] = Stabilization of human APLP2 mRNA splicing expressed in human SMA-derived fibroblasts at 131 to 655 nM by RT-qPCR analysis; assay type: ADME; details: 0.655 µM
# [32] = Terminal half life in human; assay type: ADME; details: read-out: beta t1/2 (converted)
# [33] = Drug metabolism in rat plasma assessed as dealkylated 2-(4-ethyl-6-methylpyrazolo[1,5-a]pyrazin-2-yl)-9-methyl-7-(piperidin-4-yl)-4H-pyrido[1,2-a]pyrimidin-4-one metabolite formation; assay type: ADME, cell-free
# [34] = Stabilization of human […] mRNA splicing expressed in human SMA-derived fibroblasts at 131 to 655 nM by RT-qPCR analysis; assay type: ADME; details: 0.655 µM
# [35] = Chronic toxicity in retina of po dosed cynomolgus monkey assessed as excess vacuolation of inner nuclear layer after 39 weeks by histological analysis; assay type: organism-based, Macaca fascicularis; details: in vivo, 6552 h
# [36] = Chronic toxicity in retina of po dosed cynomolgus monkey assessed as RPE hypertrophy 39 weeks by histological analysis; assay type: organism-based, Macaca fascicularis; details: in vivo, 6552 h
# [37] = Lipophilicity, log D of the compound at pH 7.4; assay type: physicochemical; details: buffer
# Mus musculus [38] = experiment: In-vivo stabilization of SMN2 mRNA in SMA neonatal delta7 mouse model assessed as increase in free SMN protein levels by measuring free AUC (0 to 42 hrs) at 1 mg/kg, ip dosed once daily starting from postnatal day 3 to postnatal day 9; assay type: functional
# [39] = Volume of distribution at steady state in rat at 2 mg/kg, iv administered as single dose; assay type: ADME, organism-based; details: in vivo, read-out: Vdss
# [40] = Dark toxicity in mouse 3T3 cells assessed as decrease in cell viability by neutral red uptake assay; assay type: cell-based, NIH3T3
# NIH3T3 = experiment: Phototoxicity in mouse 3T3 cells assessed as decrease in cell viability in presence of UV light by neutral red uptake assay; assay type: cell-based; details: NIH3T3, light or radiation study
# [41] = Volume of distribution at steady state in cynomolgus monkey; assay type: ADME, Macaca fascicularis; details: in vivo, read-out: Vdss
# [42] = Effect on human FOXM1a mRNA splicing expressed in human SMA-derived fibroblasts by RT-qPCR analysis; assay type: ADME
# [43] = Chronic toxicity in retina of po dosed cynomolgus monkey assessed as effect on outer nuclear layers after 39 weeks by histological analysis; assay type: organism-based, Macaca fascicularis; details: in vivo, 6552 h
# [44] = Half life in cynomolgus monkey at 1.3 mg/kg, po administered as single dose; assay type: ADME, organism-based, Macaca fascicularis; details: in vivo
# [45] = Drug metabolism in pig plasma assessed as dealkylated 2-(4-ethyl-6-methylpyrazolo[1,5-a]pyrazin-2-yl)-9-methyl-7-(piperidin-4-yl)-4H-pyrido[1,2-a]pyrimidin-4-one metabolite formation; assay type: ADME, cell-free, Sus scrofa
# [46] = Chronic toxicity in retina of po dosed cynomolgus monkey assessed as formation of scotopic depressed B-waves after 39 weeks by ERG analysis; assay type: organism-based, Macaca fascicularis; details: in vivo, 6552 h
# [47] = Drug metabolism in mouse plasma assessed as dealkylated 2-(4-ethyl-6-methylpyrazolo[1,5-a]pyrazin-2-yl)-9-methyl-7-(piperidin-4-yl)-4H-pyrido[1,2-a]pyrimidin-4-one metabolite formation; assay type: ADME, cell-free
# Chain of Survival motor neuron protein (Homo sapiens) (Q16637 whole entry): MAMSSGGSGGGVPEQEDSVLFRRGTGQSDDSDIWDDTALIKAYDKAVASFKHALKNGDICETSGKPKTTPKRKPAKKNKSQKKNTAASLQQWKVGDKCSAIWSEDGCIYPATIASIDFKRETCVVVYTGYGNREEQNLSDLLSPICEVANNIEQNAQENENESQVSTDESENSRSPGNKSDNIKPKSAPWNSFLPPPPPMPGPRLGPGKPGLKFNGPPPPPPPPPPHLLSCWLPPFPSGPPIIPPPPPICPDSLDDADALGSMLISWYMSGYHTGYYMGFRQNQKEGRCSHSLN
compound,measurement,setting,value
Cc1cn2nc(-c3cc(=O)n4cc(N5CCN6CCC[C@H]6C5)ccc4n3)ccc2n1,EC1.5,[1],20 nM
same,EC1.5,Homo sapiens [2],3 nM
Cc1cn2nc(-c3cc(=O)n4cc(N5CCN(O)C6(CC6)C5)ccc4n3)cc(C)c2n1,Activity,[3]; human,Non-Toxic
same,Activity,[4]; cynomolgus monkey,Non-Toxic
Cc1cn2nc(-c3cc(=O)n4cc(N5CCN6CCC[C@H]6C5)ccc4n3)cc(C)c2n1,EC1.5,[1],22 nM
same,EC1.5,Homo sapiens [2],2 nM
Cc1cn2cc(-c3cc(=O)n4cc(N5CCC(N6CCCC6)CC5)ccc4n3)cc(C(F)(F)F)c2n1,Vd,in vivo,18 L/kg
same,pKa,physchem,9.3
CCc1nc(C)cn2nc(-c3cc(=O)n4cc(C5CCN(CC)CC5)cc(C)c4n3)cc12,Vd,in vivo,20 L/kg
same,pKa,physchem,9.1
CCc1nc(C)cn2nc(-c3cc(=O)n4cc(N5CCN6CCC[C@@H]6C5)ccc4n3)cc12,Vd,in vivo,7 L/kg
same,pKa,physchem,7.6
CCc1nc(C)cn2nc(-c3cc(=O)n4cc(N5CCN6CCC[C@H]6C5)ccc4n3)cc12,EC1.5,[1],163 nM
same,EC1.5,Homo sapiens [2],40 nM
Cc1cn2cc(-c3cc(=O)n4cc(N5CCN6CCC[C@@]6(C)C5)ccc4n3)cc(C(F)(F)F)c2n1,Vd,in vivo,9 L/kg
same,pKa,physchem,8.4
CCc1nc(C)cn2cc(-c3cc(=O)n4cc(N5CCC(N6CCC6)CC5)cc(C)c4n3)cc12,Vd,in vivo,20 L/kg
same,pKa,physchem,8.9
Cc1cn2cc(-c3cc(=O)n4cc(N5CCN(C)CC5)ccc4n3)cc(F)c2n1,Vd,in vivo,5 L/kg
same,pKa,physchem,7.2
Cc1nc2c(F)cc(-c3cc(=O)n4cc(N5CCN6CCC[C@H]6C5)ccc4n3)cc2o1,Vd,in vivo,4 L/kg
same,pKa,physchem,7.5
Cc1cn2cc(-c3cc(=O)n4cc(N5CCN6CCC[C@H]6C5)ccc4n3)cc(C)c2n1,Vd,in vivo,15 L/kg
same,pKa,physchem,8.6
CCc1nc(C)cn2nc(-c3cc(=O)n4cc(N5CCN6CCC[C@]6(C)C5)ccc4n3)cc12,Vd,in vivo,15 L/kg
same,pKa,physchem,8.4
CCc1nc(C)cn2nc(C3=CC(=O)N4C=C(C5CCNCC5)C=C(C)C4N3)cc12 (stereo unspecified),efflux ratio,[5],20
same,efflux ratio,[6],18.7
same,Drug metabolism,[7],<= 9 %ID
same,Drug metabolism,[8],<= 9 %ID
same,Drug metabolism,[9],<= 9 %ID
same,EC50,[10],23 nM
same,EC1.5,Homo sapiens [2],< 2 nM
Cc1cn2cc(-c3cc(=O)n4cc(N5CCN6CCC[C@H]6C5)ccc4n3)cc(C(F)(F)F)c2n1,Vd,in vivo,7 L/kg
same,pKa,physchem,7.3
CCc1nc(C)cn2nc(-c3cc(=O)n4cc(C5CCN(C)CC5)cc(C)c4n3)cc12,bioavailability,[11],100%
same,Drug metabolism,[12],Metabolite_Detected
same,Drug metabolism,[13],Metabolite_Detected
same,IC50,[3]; Homo sapiens,1850 nM
same,Activity,[14],Toxic
same,Tmax,[15],5 to 8 h
same,Activity,[16],Non-Toxic
same,bioavailability,[17],52%
same,IC20,hERG (KCNH2),500 nM
same,IC50,[18],1800 nM
same,Drug metabolism,[19],Metabolite_Detected
same,fAUC,Mus musculus [20],118 ng·h/mL
same,Drug metabolism,[21],Metabolite_Detected
same,half-life,[22],19 h
same,Vd,in vivo,20 to 30 L/kg
same,half-life,[23],19 h
same,Activity,[24],Non-Toxic
same,clearance,[25],25 mL/min/kg
same,EC1.5,[1],87 nM
same,Activity,[26],Toxic
same,Time,[27],10 ms
same,half-life,[28],42 h
same,Activity,[29],Toxic
same,EC1.5,Homo sapiens [30],23 nM
same,efflux ratio,[6],2
same,Activity,[31],Non-Toxic
same,half-life,[32],120 h
same,Drug metabolism,[33],Metabolite_Detected
same,Activity,[34],Non-Toxic
same,Activity,[35],Toxic
same,Activity,[36],Toxic
same,logD,[37],2.3
same,fAUC,Mus musculus [38],73 ng·h/mL
same,Vd,[39],29 L/kg
same,IC50,[4]; Macaca fascicularis,900 nM
same,IC50,[40],> 10000 nM
same,IC50,NIH3T3,330 nM
same,pKa,physchem,10.9
same,Vd,[41],20 to 30 L/kg
same,EC50,[10],352 nM
same,EC50,[42],247 nM
same,Activity,[43],Toxic
same,half-life,[44],42 h
same,Drug metabolism,[45],Metabolite_Detected
same,Activity,[46],Toxic
same,Drug metabolism,[47],Metabolite_Detected
